Experimental findings from ChEMBL document CHEMBL1157539, “Thousands of chemical starting points for antimalarial lead identification” (Nature, 2010) are described below.

The test system of the assay is Plasmodium falciparum. Put plainly: GSK_TCMDC: Inhibition of Plasmodium falciparum 3D7 in whole erythrocytes, using parasite LDH activity as an index of growth. The assay is classed as functional, organism-based. The settings on record: Plasmodium falciparum, 3D7.
For the compound `CNc1nc(N/N=C/c2cc([N+](=O)[O-])c(Cl)cc2Cl)nc(Nc2cccc(C(F)(F)F)c2)n1`, the XC50 stood at 0.729 µM.

As to `CCC(C)NC(=O)Nc1cccc(-c2cccc(-c3nc4cccc(C)c4[nH]3)c2)c1` (stereo unspecified), the XC50 was determined as 0.809 µM. Regarding `Cn1cc(C(=O)Nc2cccc(-c3cccc(-c4nc5ccccc5[nH]4)c3)c2)n(C)c1=O`, the XC50 came to 0.715 µM. Consider `CCCc1ccc(C(=O)N2C(c3nccs3)C(C(N)=O)CC2(CC(C)C)C(=O)O)cc1` (stereo unspecified), for which the XC50 came out at 0.156 µM. Consider `Cc1nn(CC(C)C)c2sc(C(=O)Nc3nc(-c4ccccn4)cs3)cc12`, for which the XC50 stood at 0.961 µM. The compound `O=C(Nc1cc(Cl)cc(Cl)c1)Nc1ccnc2ccccc12` yielded an XC50 of 0.745 µM. For `CN(C)CC(=O)Nc1ccc(Nc2nccc(NCC(O)c3ccccc3)n2)cc1` (stereo unspecified), the XC50 was determined as 0.973 µM. For `CN(C)c1ccc(OCCCCCCOc2ccccc2)cc1`, the XC50 turned out to be 0.496 µM. `Cc1cc(OCCCNC(=N)c2ccc3ccccc3c2)c(C(C)C)cc1Cl` yielded an XC50 of 0.973 µM. Take `COc1ccc2c(c1C1CCN(CCCCNC(=O)c3ccc(-c4ccc(Cl)cn4)cc3)CC1)CCCC2`: the XC50 was determined as 1.02 µM.

In turn, `CN1CCN(c2ccnc3ccc(NC(=O)Cc4ccc(Br)c5ccccc45)cc23)CC1` yielded an XC50 of 0.807 µM. In turn, `COc1cccc(-c2cnc(-c3ccncc3)nc2C2CCN(Cc3ccc(NC(C)=O)cc3)CC2)c1` had an XC50 of 1.5 µM. Take `CC(=O)c1ccc(-n2ccnc2)cc1`: the XC50 was 0.852 µM.

`O=c1cc(NCCCNCc2sc(Br)c(Br)c2Br)[nH]c2ccccc12` registered an XC50 of 1.01 µM. Take `Cc1noc(C)c1-c1ccc2c(Nc3ccccc3C(C)(C)C)c(C(=O)NCc3ccc(OC(C)C)cc3)cnc2c1`: the XC50 came to 0.908 µM. `O=C(Nc1ccc(-c2nc3ccccc3[nH]2)cc1)C1CCN(Cc2cccc(F)c2F)CC1` had an XC50 of 1.1 µM.

As to `CC(Cc1ccc(NC(=O)COc2ccc(CC(C)NCCc3cccc(Cl)c3)cc2)cc1)NCCc1cccc(Cl)c1` (stereo unspecified), the XC50 is 0.0843 µM. The value for `CCC1(CC)NC(N)=NC(=N)N1OCc1ccc(Cl)c(Cl)c1` was 0.0585 µM; that for `O=C(C=Cc1ccc(-c2ccccc2)cc1)N1CCC(CCN2CCC(c3c[nH]c4ccccc34)CC2)CC1` was 1.12 µM. Then `CCCCCC(C)(C)NC[C@@H](O)[C@H](Cc1ccccc1)NC(=O)c1cc(NCC)cc(N2CCCC2=O)c1`, with 0.674 µM. As to `Cc1cc(NCCCCCCN)nc(Nc2ccc(Cl)cc2)n1`, the XC50 stood at 0.448 µM. Compound `Cn1cncc1C(=O)Nc1cccc(-c2cccc(-c3nc4ccccc4[nH]3)c2)c1` returned an XC50 of 0.635 µM. `CCCC(C)Nc1nc(C)cc(N[C@@H](CC(C)C)C(=O)Nc2ccc(OC)cc2)n1` (stereo partly specified) returned an XC50 of 0.866 µM. Compound `N#Cc1ccc(C=CC(=O)NC2CCC(CCN3CCc4ccc(-c5cnccn5)cc4CC3)CC2)cc1` (stereo unspecified) displayed an XC50 of 0.613 µM.

In turn, `COc1ccc(S(=O)(=O)NC2CCN(CCCOc3ccnc4cc(Cl)ccc34)C2)cc1OC` (stereo unspecified) yielded an XC50 of 1.05 µM. The value for `CN1CCN(c2ccnc3ccc(NC(=O)Nc4ccc5ccccc5c4)cc23)CC1` was 0.0766 µM; that for `O=C(Nc1ccccc1)N(Cc1cccc(-c2cccc(CNCCc3ccccc3)c2)c1)C1CCN(Cc2ccccc2)CC1` was 0.307 µM.

The compound `CN1CCN(Cc2ccc(-c3ccc4c(Nc5ccc(Oc6ccccc6)cc5)ccnc4c3)o2)CC1` returned an XC50 of 0.177 µM. With `Nn1c(=O)oc2ccc(Cl)cc2c1=O`, the XC50 turned out to be 0.187 µM. As for `Cc1ncsc1CCN1C(=O)CC2(C1=O)C(=O)N(Cc1ccccc1)c1ccc(Cl)cc12` (stereo unspecified), the XC50 worked out at 0.984 µM.

Compound `Cc1cccc2[nH]c(-c3cc(-c4cccc(Cl)c4)cnc3N)nc12` returned an XC50 of 0.124 µM. Then `c1ccc2c(c1)CN(Cc1ccsc1)CC1(CCN(Cc3c[nH]c4cnccc34)CC1)O2`, with 1.15 µM.

`c1cc(CN2CCN(c3ccncc3)CC2)cc(-c2ccc(-c3nc4ccccc4[nH]3)s2)c1` came in with an XC50 of 0.148 µM.

`CCNc1cc(C(=O)NC(Cc2ccccc2)C(O)CNC2CCSCC2)cc(N2CCCC2=O)c1` (stereo unspecified): the XC50 amounted to 0.133 µM. As for `CCCCCCN1CCN(Cc2cccc(NC(=O)c3cc4ccccc4o3)c2)CC1`, the XC50 was determined as 0.909 µM.

Compound `COc1cc(Nc2nccc(N3CCC(NC(=O)c4cccc(C#N)c4)C3)n2)cc(OC)c1OC` (stereo unspecified) yielded an XC50 of 0.992 µM. In turn, `CN1CCCN(Cc2ccc(-c3ccc(NS(=O)(=O)c4cccc5cccnc45)cc3)cc2)CC1` displayed an XC50 of 0.694 µM.

Regarding `CCN(CC)CCCN1CCN(C(=O)c2cccc(-c3noc(C(F)(F)F)n3)c2)CC1`, the XC50 was determined as 0.154 µM. Regarding `CC(C)CNCc1ccc(-c2ccccc2CN(C(=O)NCCc2ccccc2)C2CCN(Cc3ccccc3)CC2)cc1`, the XC50 came to 0.878 µM. `O=C(Cc1cccc(Cl)c1)Nc1ccc(N2CCC(NCc3ccc4ncccc4c3)CC2)cc1` returned an XC50 of 1.23 µM.

Consider `O=C(/C=C/c1ccc(Cl)c(Cl)c1)NC1CCC(CN2CCC(c3c[nH]c4cc(O)ccc34)CC2)CC1` (stereo unspecified), for which the XC50 was determined as 0.813 µM. `O=c1cc(NCCCNCc2ccc(Cl)c(Cl)c2)[nH]c2ccc(Cl)cc12` registered an XC50 of 0.344 µM. Then `Cc1ccc(C(=O)Nc2ccc(Nc3ccnc4cc(-c5ccccn5)ccc34)cc2O)cc1`, with 0.111 µM; and `CCCCCc1ccc(NC(=O)Nc2ccc(Cn3ncc(N4CCCNCC4)c(Cl)c3=O)cc2)cc1`, with 1.14 µM. On to `N#Cc1ccc2c(c1)CCN(CCCn1c(-c3ccc4ccccc4c3)nc3ccncc31)CC2`, for which the XC50 is 0.198 µM. The compound `CCN(CCCN1CCCCC1)c1cc(C)nc(Nc2ccc(OC)cc2)n1` yielded an XC50 of 0.621 µM.

The compound `CCCCCCCC1CCN(C[C@H](O)c2ccnc3ccc(OC)cc23)CC1` yielded an XC50 of 0.956 µM. Consider `CC(C)(C)c1nn(-c2ccc(Cl)cc2)c2[nH]c(=O)c(CNCc3ccc4c(c3)OCO4)cc12`, for which the XC50 came to 0.81 µM. In turn, `O=C(NCCCCN1CCC(c2ccc3c(c2OCc2ccncc2)CCCC3)CC1)c1ccc(NC(=O)c2ccc(Cl)cc2)cc1` had an XC50 of 0.218 µM.

Compound `CN1CCN(c2nc(NCCc3ccc(O)cc3)nc(NCc3ccccc3-c3ccc(C(F)(F)F)cc3)n2)CC1` had an XC50 of 0.971 µM. With `Oc1ccc2ccccc2c1C=NNc1nc(=Nc2ccccc2)nc(N2CCOCC2)[nH]1`, the XC50 turned out to be 0.885 µM.

`Cc1cccc2nc(-c3cccc(-c4ccc(NC(=O)Cc5ccccn5)cc4)c3)[nH]c12` had an XC50 of 0.793 µM. Consider `O=C(/C=C/c1ccc2ccccc2c1)NC1CCC(CN2CCC(c3c[nH]c4ccccc34)CC2)CC1` (stereo unspecified), for which the XC50 came to 0.727 µM.

`O=C(CSc1nccn1Cc1ccco1)Nc1cc(C(F)(F)F)ccc1Cl` showed an XC50 of 0.822 µM. Turning to `N#Cc1ccc(CN2CCCN(Cc3cccc(NC(=O)c4ccc(Cl)c(Cl)c4)c3)CC2)cc1`, the XC50 amounted to 0.85 µM. The value for `O=C(NCc1ccc(F)cc1)Nc1ccc(-c2cccc(-c3nc4cc(F)ccc4[nH]3)c2)cc1` was 1.12 µM; that for `Cc1cc(N[C@@H](Cc2ccccc2)C(=O)NC2CCCC2)nc(Nc2ccccc2)n1` was 0.828 µM. As for `Cc1cccc2nc(-c3ccc(-c4ccc(CN5CCN(CCO)CC5)cc4)cc3)[nH]c12`, the XC50 was determined as 0.599 µM. In turn, `CCOC(=O)c1cc(Cl)cc(Cl)c1OCCCON1C(=N)N=C(N)NC1(C)C` yielded an XC50 of 0.0032 µM. `O=C(NCCCCN1CCN(c2ccc3c(c2)CCC3)CC1)c1ccc(NC(=O)c2ccc(Cl)cc2)cc1`: the XC50 turned out to be 0.677 µM. In turn, `Cc1ccc(O)c(-c2cc(C(=O)Nc3ccc(S(=O)(=O)N4CCCCCC4)cc3)[nH]n2)c1` yielded an XC50 of 0.711 µM.

The compound `COc1cccc(-c2cc3nc4c(c(NCCCn5ccnc5)n3n2)CCCC4)c1` came in with an XC50 of 0.681 µM. `Cc1ccc(Cl)cc1N1CCN(CCCNC(=O)C2CCN(c3nc4ccccc4[nH]3)CC2)CC1` gave an XC50 of 0.895 µM. In the case of `CCc1ccc(S(=O)(=O)Nc2cccc(CCN3CCC(N4CCCCC4)CC3)c2)cc1`, the XC50 amounted to 0.898 µM. The value for `c1cc(-c2ccc(CNCCCn3ccnc3)cc2)cc(-c2nc3ccccc3[nH]2)c1` was 0.113 µM.

With `CN(C)CCOc1cc(O)c2c(c1)OC(C)(C)C=C2c1cccs1`, the XC50 was found to be 0.29 µM. For the compound `Cc1cccc2nc(-c3cccc(-c4cccc(CNCCNC(=O)c5ccnn5C)c4)c3)[nH]c12`, the XC50 worked out at 0.192 µM. Then `CC1(C)NC(N)=NC(=N)N1OCCc1ccc(N)cc1`, with 0.0032 µM; and `Cc1cc(OC(C)C(=O)N2CCc3ccccc32)ccc1Cl` (stereo unspecified), with 0.785 µM; and `OC1(c2ccccc2)CCN(Cc2cccc(-c3c[nH]c4nc(NC5CCCC5)ncc34)c2)C1` (stereo unspecified), with 0.914 µM.

`O=C(Nc1ccc(Cl)c(Cl)c1)Nc1ccc2c(c1)CCNCC2` showed an XC50 of 0.532 µM.

For the compound `COC(=O)c1cccc(NC(=O)NCCNc2ccnc(Nc3ccc(F)cc3)n2)c1`, the XC50 turned out to be 0.837 µM. `CC(C)Nc1cc(C(=O)N[C@@H](Cc2ccccc2)[C@H](O)CNC(C)(C)c2cccc(C(F)(F)F)c2)cc(N2CCCCS2(=O)=O)c1` yielded an XC50 of 0.0794 µM.

As to `COc1ccc2nccc([C@@H](O)CN3CCC(NC(=O)/C=C/c4cccc(-c5ccccc5)c4)CC3)c2c1`, the XC50 turned out to be 0.248 µM. In turn, `Cc1cccc2nc(-c3ccc(-c4ccc(CN5CCCCC5CO)cc4)cc3)[nH]c12` (stereo unspecified) came in with an XC50 of 0.808 µM. On to `O=C(Nc1ccc(N2CCN(c3ncccc3C(F)(F)F)CC2)nc1)c1cccs1`, for which the XC50 worked out at 1.19 µM. `O=C(NC1CCN(CCCc2ccccc2)CC1)c1ccc(-c2cccc(C(F)(F)F)c2)s1` gave an XC50 of 0.894 µM. In the case of `CCOC(=O)c1ccc(NC(=O)Nc2ccc(Cn3ncc(N4CCCNCC4)c(Cl)c3=O)cc2)cc1`, the XC50 amounted to 0.443 µM. `OC(CNc1ccnc(Nc2ccc(Cl)cc2)n1)c1cccc(C(F)(F)F)c1` (stereo unspecified): the XC50 was 0.676 µM. Then `CC(O)C1CCCCN1C(=O)c1cccc(-c2cccc(-c3nc4ccccc4[nH]3)c2)c1` (stereo unspecified), with 0.534 µM; and `COc1ccc2nccc([C@@H](O)CN3CCC(NCc4nc5c(C#N)cccc5[nH]4)CC3)c2c1`, with 0.999 µM.

Turning to `COc1cc(F)c2ncc(Cl)c([C@H](O)CN3CCC(NCc4cc5c(cn4)OCCO5)CC3)c2c1`, the XC50 stood at 0.0952 µM. Then `CC(C)c1ccc2oc(-c3ccc(NC(=O)c4ccc([N+](=O)[O-])o4)cc3)nc2c1`, with 0.34 µM. As for `NC(=O)c1ccsc1NC(=O)CNC(c1ccccc1)c1ccc(Cl)cc1` (stereo unspecified), the XC50 amounted to 0.262 µM. On to `O=C(Nc1ccc(CCNCCCc2ccccc2)cc1)Nc1ccc(Cl)c(Cl)c1`, for which the XC50 was found to be 0.273 µM.

On to `C=C[C@H]1CN(CCCCCCC)CC[C@H]1CC(=O)Nc1cnnc2ccc(OC)cc12`, for which the XC50 stood at 0.529 µM.
